Experimental findings from US9169241B2, “Quinolinyloxyphenylsulfonamides” (Max-Planck-Gesellschaft Zur Forderung der Wissenschaften …, priority 2009, dated 2015) are described below.

Some results are limits rather than exact numbers.

Broadly, the IC50 is the concentration that gives 50% inhibition.

For this test, the system named is A172. Briefly: Cell vitality assay (ATP assay, CellTiter-Glo). It is filed as cell-based. The settings on record: Homo sapiens, A 172; A172, 72 h; Table IIa; read-out: IC50 ATP-Assay after 72 h A172. The procedure, abridged: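 ATP-based luminescence (CellTiter-Glo) after 72 h exposure of 1000 cells/well to seven compound concentrations from 0.195 to 12.5 μM. IC50 defined as concentration reducing ATP to 50% of DMSO control.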
On the technique in general: In ATP-based viability assays light output follows the ATP content of the culture.
Regarding `COc1cc2c(Oc3ccc(NS(=O)(=O)c4c(Cl)cccc4Cl)cc3F)ccnc2cc1OCCCN1CCCCC1` [Example 6, 2,6-Dichloro-N-{3-fluoro-4-[6-methoxy-7-(3-piperidin-1-yl-propoxy)-quinolin-4-yloxy]-phenyl}-benzenesulfonamide], the IC50 is at most 12.5 µM. In the case of `COc1cc2c(Oc3ccc(NS(=O)(=O)c4c(F)cccc4F)cc3F)ccnc2cc1OCCCN1CCCCC1` [Example 11, 2,6-Difluoro-N-{3-fluoro-4-[6-methoxy-7-(3-piperidin-1-yl-propoxy)-quinolin-4-yloxy]-phenyl}-benzenesulfonamide], the IC50 lay in the range of 12.5 to 50 µM. In the case of `COc1cc2c(Oc3ccc(NS(=O)(=O)c4ccccc4[N+](=O)[O-])cc3F)ccnc2cc1OCCCN1CCCC(C)C1` (stereo not drawn) [Example 40, N-(3-Fluoro-4-{6-methoxy-7-[3-(3-methyl-piperidin-1-yl)-propoxy]-quinolin-4-yloxy}-phenyl)-2-nitro-benzenesulfonamide], the IC50 is at most 12.5 µM. The same measure for `COc1cc2c(Oc3ccc(NS(=O)(=O)c4ccccc4OC(F)(F)F)cc3F)ccnc2cc1OCCCN1CCCC(C)C1` (stereo not drawn) [Example 45, N-(3-Fluoro-4-{6-methoxy-7-[3-(3-methyl-piperidin-1-yl)-propoxy]-quinolin-4-yloxy}-phenyl)-2-trifluoromethoxy-benzenesulfonamide]: at most 12.5 µM; for `COc1cc2c(Oc3ccc(NS(=O)(=O)c4ccc(F)c(F)c4F)cc3F)ccnc2cc1OCCCN1CCCC(C)C1` (stereo not drawn) [Example 49, 2,3,4-Trifluoro-N-(3-fluoro-4-{6-methoxy-7-[3-(3-methyl-piperidin-1-yl)-propoxy]-quinolin-4-yloxy}-phenyl)-benzenesulfonamide]: at most 12.5 µM; for `COc1cc2c(Oc3ccc(NS(=O)(=O)c4c(Cl)cccc4Cl)cc3F)ccnc2cc1OCCCN1CCCC(C)C1` (stereo not drawn) [Example 51, 2,6-Dichloro-N-(3-fluoro-4-{6-methoxy-7-[3-(3-methyl-piperidin-1-yl)-propoxy]-quinolin-4-yloxy}-phenyl)-benzenesulfonamide]: at most 12.5 µM. Turning to `COc1cc2c(Oc3ccc(NS(=O)(=O)c4cccc(Cl)c4F)cc3F)ccnc2cc1OCCCN1CCCC(C)C1` (stereo not drawn) [Example 54, 3-Chloro-2-fluoro-N-(3-fluoro-4-{6-methoxy-7-[3-(3-methyl-piperidin-1-yl)-propoxy]-quinolin-4-yloxy}-phenyl)-benzenesulfonamide], the IC50 is at most 12.5 µM. `COc1cc2c(Oc3ccc(NS(=O)(=O)c4ccccc4OC(F)(F)F)cc3F)ccnc2cc1OCCCN1CCCCC1` [Example 78, N-{3-Fluoro-4-[6-methoxy-7-(3-piperidin-1-yl-propoxy)-quinolin-4-yloxy]-phenyl}-2-trifluoromethoxy-benzenesulfonamide]: the IC50 is at most 12.5 µM.

As for `COc1cc2c(Oc3ccc(NS(=O)(=O)c4ccccc4C(F)(F)F)cc3F)ccnc2cc1OCCCN(C)C` [Example 100, N-{4-[7-(3-Dimethylamino-propoxy)-6-methoxy-quinolin-4-yloxy]-3-fluoro-phenyl}-2-trifluoromethyl-benzenesulfonamide], the IC50 was at most 12.5 µM. As to `COc1cc2c(Oc3ccc(NS(=O)(=O)c4c(Cl)cccc4Cl)cc3F)ccnc2cc1OCCN1CCOCC1` [Example 104, 2,6-Dichloro-N-{3-fluoro-4-[6-methoxy-7-(2-morpholin-4-yl-ethoxy)-quinolin-4-yloxy]-phenyl}-benzenesulfonamide], the 50% inhibitory concentration (IC50) lay within 12.5 to 50 µM.

Take `COc1cc2c(Oc3ccc(NS(=O)(=O)c4c(F)cccc4F)cc3F)ccnc2cc1OCCCN1CCN(C)CC1` [Example 110, 2,6-Difluoro-N-(3-fluoro-4-{6-methoxy-7-[3-(4-methyl-piperazin-1-yl)-propoxy]-quinolin-4-yloxy}-phenyl)-benzenesulfonamide]: the IC50 was at most 12.5 µM. On to `COc1cc2c(Oc3ccc(NS(=O)(=O)c4cc(F)ccc4F)cc3Cl)ccnc2cc1OCCCN1CCN(C)CC1` [Example 112, N-(3-Chloro-4-{6-methoxy-7-[3-(4-methyl-piperazin-1-yl)-propoxy]-quinolin-4-yloxy}-phenyl)-2,5-difluoro-benzenesulfonamide], for which the IC50 is at most 12.5 µM. In the case of `COc1cc2c(Oc3ccc(NS(=O)(=O)c4c(Cl)cccc4Cl)cc3Cl)ccnc2cc1OCCCN1CCN(C)CC1` [Example 119, 2,6-Dichloro-N-(3-chloro-4-{6-methoxy-7-[3-(4-methyl-piperazin-1-yl)-propoxy]-quinolin-4-yloxy}-phenyl)-benzenesulfonamide], the IC50 was at most 12.5 µM. With `COC(=O)c1sccc1S(=O)(=O)Nc1ccc(Oc2ccnc3cc(OCCCN4CCCCC4)c(OC)cc23)c(F)c1` [Example 155, 3-{3-Fluoro-4-[6-methoxy-7-(3-piperidin-1-yl-propoxy)-quinolin-4-yloxy]-phenylsulfamoyl}-thiophene-2-carboxylic acid methyl ester], the IC50 is at most 12.5 µM. With `COC(=O)c1sccc1S(=O)(=O)Nc1ccc(Oc2ccnc3cc(OCCCN4CCC(C)CC4)c(OC)cc23)c(F)c1` [Example 156, 3-(3-Fluoro-4-{6-methoxy-7-[3-(4-methyl-piperidin-1-yl)-propoxy]-quinolin-4-yloxy}-phenylsulfamoyl)-thiophene-2-carboxylic acid methyl ester], the IC50 is at most 12.5 µM.

For `COC(=O)c1sccc1S(=O)(=O)Nc1ccc(Oc2ccnc3cc(OCCCN4CCOCC4)c(OC)cc23)c(F)c1` [Example 157, 3-{3-Fluoro-4-[6-methoxy-7-(3-morpholin-4-yl-propoxy)-quinolin-4-yloxy]-phenylsulfamoyl}-thiophene-2-carboxylic acid methyl ester], the IC50 is at most 12.5 µM.

Take `COC(=O)c1sccc1S(=O)(=O)Nc1ccc(Oc2ccnc3cc(OCCCN4CCN(C)CC4)c(OC)cc23)c(F)c1` [Example 158, 3-(3-Fluoro-4-{6-methoxy-7-[3-(4-methyl-piperazin-1-yl)-propoxy]-quinolin-4-yloxy}-phenylsulfamoyl)-thiophene-2-carboxylic acid methyl ester]: the IC50 is at most 12.5 µM. As to `COc1cc2c(Oc3ccc(NS(=O)(=O)c4c(F)cccc4F)cc3F)ccnc2cc1OCCCN(C)C` [Example 178, N-{4-[7-(3-Dimethylamino-propoxy)-6-methoxy-quinolin-4-yloxy]-3-fluoro-phenyl}-2,6-difluoro-benzenesulfonamide], the IC50 was at most 12.5 µM. Consider `COc1cc2c(Oc3ccc(NS(=O)(=O)c4ccccc4OC(F)(F)F)cc3F)ccnc2cc1OCCCN(C)C` [Example 179, N-{4-[7-(3-Dimethylamino-propoxy)-6-methoxy-quinolin-4-yloxy]-3-fluoro-phenyl}-2-trifluoromethoxy-benzenesulfonamide], for which the IC50 is at most 12.5 µM. On to `COc1cc2c(Oc3ccc(NS(=O)(=O)c4c(Cl)cccc4Cl)cc3F)ccnc2cc1OCCCN(C)C` [Example 181, 2,6-Dichloro-N-{4-[7-(3-dimethylamino-propoxy)-6-methoxy-quinolin-4-yloxy]-3-fluoro-phenyl}-benzenesulfonamide], for which the IC50 is at most 12.5 µM. The same measure for `COC(=O)c1sccc1S(=O)(=O)Nc1ccc(Oc2ccnc3cc(OCCCN(C)C)c(OC)cc23)c(F)c1` [Example 184, 3-{4-[7-(3-Dimethylamino-propoxy)-6-methoxy-quinolin-4-yloxy]-3-fluoro-phenylsulfamoyl}-thiophene-2-carboxylic acid methyl ester]: at most 12.5 µM.
